Patent US20030119070A1, “Reagents for cell selection and methods of use” (Nexell Therapeutics, Inc., priority 2000, published 2003)
“And” between values parts separate entries of the source, which are not always exact repeats. Identical values can stand only once. Ends that are not written are not given here.

Columns and labels:
anti-CD2 antibody B-E2 [1] = test: FACS competition assay of peptides for binding of anti-CD2 antibody B-E2 to T cells; details: 1 mM peptide, 1×10^6 MNC, 15 min room temperature; FIG. 3
Experimental: Peptides having affinity for the CD2 monoclonal antibody B-E2 were isolated by phage display biopanning. Various peptides were tested as competitors for binding of T cells to the anti-CD2 antibody B-E2. A competition assay was performed using 1 mM of each peptide. The peptides were at 2×10^7 fold molar excess relative to the competitor CD2 antigen and at 6×10^6 fold molar excess relative to anti-CD2 antibody. Competition was measured using a FACS competition assay (see FIG. 3).
For the competition assay, 0.5 ml of a 1 mM solution of various peptides was added to 1×10^6 peripheral blood mononuclear cells (MNC) followed by the addition of 100 μl of 0.02 μg/ml of CD2 antibody (B-E2) and incubated for 15 min at room temperature. Cells were washed once in lysing reagent (155 mM ammonium chloride, 10 mM potassium bicarbonate, and 0.1 mM EDTA) and twice in 2 ml of PAH (DPBS, 1% human serum albumin, 0.02% NaN3). 1 μl of goat F(ab′)2 fragment anti-mouse IgG (heavy+light)-phycoerythrin conjugated (GAM-PE; Immunotech; Miami Fla.) was added to each sample and incubated for 10 min at room temperature. Cells were washed twice in 2 ml of PAH. The final cell pellet was resuspended in 0.25 ml of 0.5% paraformaldehyde. The samples were analyzed by flow cytometry.

SUP-T1 cells = test: Flow cytometry of SUP-T1 cells sensitized with CD8-PR34+ conjugate, biotinylated 9C5 and streptavidin-PE, with or without free peptide; assay type: cell-based, human; details: SUP-T1 cells stained with conjugate, biotinylated 9C5, streptavidin-PE; free peptide 5.0 mg/ml, 15 min; FIG. 2
Experimental: For flow cytometry experiments, SUP-T1 cells were used. SUP-T1 is a T-lymphoma-derived tumor cell line known to express typical T cell surface markers. The SUP-T1 cells were prepared for flow cytometry and sequentially sensitized with the CD8 antibody-PR34+ peptide (CD8-PR34+) conjugate, biotinylated 9C5, and phycoerythrin-labeled (PE-labeled) streptavidin. The SUP-T1 cells were incubated with either streptavidin-PE; sequentially with the CD8-PR34+ conjugate, biotinylated 9C5, followed by streptavidin-PE; or sequentially with CD8-PR34+ conjugate, biotinylated 9C5, streptavidin-PE, followed by a 15 min incubation with free PR34+™ peptide. The SUP-T1 cells were then analyzed by flow cytometry. All incubations were performed in a mixture of Dulbecco's phosphate buffered saline (GibcoBRL), 0.05% azide, 1.0% human serum albumin (PAH). All incubations were for 15 min at room temperature and each was followed by a wash with 1.0 ml PAH. The stained cells were resuspended in 0.25 ml PAH for flow cytometry. SUP-T1 cells (1×10^6) were stained with 1 μg of either the CD8-9069N or the CD34-biotin. The peptide was used at 5.0 mg/ml.

CD8+ cells = test: Positive selection of CD8+ cells from a mononuclear cell preparation; assay type: cell-based, human; details: condition 2: biotinylated CD8 antibody capture; incubation with free PR34+ peptide
Experimental: To test the ability of the CD8-PR34+ conjugate to isolate CD8+ cells from a population, mononuclear cells (MNCs), which contain CD8+ cells, were prepared. Mononuclear cells were collected from human donors. Mononuclear cells were collected from a G-CSF mobilized human donor using a CS-3000™ (Baxter) following the protocol of the manufacturer. The starting population of MNCs was 19.42% CD3+/8+. For each rosetting reaction, a quantity of MNCs containing 2×10^6 CD8+ cells was used. Biotinylated CD8 antibody (MT-415) was biotinylated essentially as described in Example I. The MNCs were incubated under three conditions. In condition 1, MNCs were incubated with streptavidin beads alone. In condition 2, MNCs were incubated with biotinylated CD8 antibody, followed by streptavidin beads. In condition 3, MNCs were incubated with CD8-PR34+ conjugate, followed by biotinylated 9C5 and streptavidin beads. After incubation with streptavidin beads, the free cells were removed, and the cells attached to streptavidin beads were incubated with free PR34+™ peptide. The released cells were counted, and the number of CD8+ cells was evaluated using flow cytometry. The CD8+ cells were quantitated using a combination of CD3 and […]. CD3 is a pan T cell marker, and CD3+ populations can be further subdivided into mutually exclusive CD4+ and CD8 positive populations. […]

CD2+ T cells = test: Positive selection of CD2+ T cells using CD2-9069N, b-9069 and streptavidin beads; assay type: cell-based, human; details: release reagent 9069N 2.5 mg; for % T-cells released: 30 min./RT
Description: To test the ability of a PR34+ peptide-conjugate to isolate a different cell type, the PR34+TM peptide was coupled to a CD2 antibody (B-E2; IgG2b isotype; Diaclone; Besancon, France) essentially as described in Example T. The PR34+TM peptide, also designated […], conjugated to the CD2 antibody was designated CD2-[…]. The biotinylated 9C5 antibody, also known as the 9069 antibody, was designated b-9069. Either mobilized or non-mobilized MNC preparations (see Example III) were used, with similar results. Cells were incubated with 1 μg or 5 μg of CD2-[…] conjugate for 15 min at room temperature (see Table 3). The cells were then incubated with 1 μg or 10 μg of biotinylated 9C5 antibody (b-9069) and streptavidin beads. Bound cells were subsequently incubated with either buffer or 2.5 mg of free PR34+TM peptide ([…]). Incubation conditions were essentially as described in Example II. The released cells were then quantitated and the purity determined. Purity and cell counts were assessed using an anti-CD3 antibody and the True Count flow cytometty quantitation method (Becton Dickenson; San Jose Calif.).

CD2 T cells = test: T cell selection using CD2-PR34 conjugate and capture by direct binding of CD34 antibody to Dynabeads; assay type: cell-based, human; details: for % Purity / % Yield: release agent PR34+ 2.5 mg
Experimental: The CD2 antibody B-E2 was conjugated to PR34™ peptide essentially as described in Example IV. MNCs were incubated essentially as described in Example IV using CD2-PR34 conjugate. The cells were then incubated with the CD34 antibody 9069 coated on M-450 Dynabeads (Dynal). The CD34 antibody coated beads were prepared by absorbing various amounts of anti-CD34 antibody on the bead surface. The beads were prebound with 0, 1, 5, 20, or 50 μg of antibody per 108 beads. As a control, an aliquot of cells was incubated with streptavidin coated Dynabeads.

Camma cells = test: Positive selection of Camma cells using Pan-O-5-PR34 conjugate and anti-CD34-coated Dynabeads; assay type: cell-based; details: PR34 peptide 5 mg/ml, 30 min room temperature; FIG. 5, N=1
Experimental: To prepare antibody-coated beads, Dynabeads (Dynal) were washed with Dulbecco's phosphate buffered saline (D-PBS). Washed beads were coated with 50 μg anti-CD34 monoclonal antibody per 10^8 beads for 24 hours at 4° C. The beads were washed twice with Isolex buffer and incubated with 1% albumin in the Isolex buffer for 24 hours at 4° C.
To synthesize the Pan-O-5-PR34 conjugate, the Pan-O-5 monoclonal antibody was incubated with N-(ε-maleimidocaproyloxy)succinimide ester for 30 min at room temperature to generate an antibody-linker complex. The antibody-linker complex was washed twice with D-PBS using an Amicon spin column (30 KD; Millipore Corp.; Bedford Mass.). The Pan-O-5-antibody-linker complex was incubated with PR34™ peptide for 30 min at room temperature. The Pan-O-5-linker-PR34 antibody complex was washed twice with D-PBS using an Amicon spin column. The concentration of the conjugate was determined by absorbance at 280 nm.
Cells (18×10^6) were incubated with Pan-O-5-linker-PR34 antibody (5 μg/ml) for 15 min. The cell-antibody complex was washed twice with Isolex buffer and incubated with anti-CD34-coated Dynabeads (5 beads per cell) for 30 min at room temperature. The Dynabeads were isolated with a magnet, and unbound cells were removed. The bead-cell fraction was incubated with PR34™ peptide (5 mg/ml) for 30 min at room temperature. […]

anti-CD2 antibody B-E2 [2] = test: FACS release assay of cells bound to anti-CD2 antibody using peptides; assay type: binding; details: 1 mM or 5 mM peptide, 30 min room temperature, in some cases 1 mM DTT; FIG. 4
Experimental: Several of the peptides were further tested for release activity. Briefly, the FACS release assay was performed by incubating 1×10^6 MNC with 100 μl of 0.02 μg/ml of CD2 antibody for 15 min at room temperature. Cells were washed once with 2 ml of lysing reagent and twice with 2 ml of PAH solution. 0.5 ml of a 1 mM or 5 mM peptide stock was added to the cell pellet and incubated at room temperature for 30 min. Cells were washed twice in 2 ml of PAH. 1 μl of GAM-PE was added to each sample and incubated for 10 min at room temperature. Cells were washed twice in 2 ml of PAH. The final cell pellet was resuspended in 0.25 ml of 0.5% paraformaldehyde. The samples were analyzed by flow cytometry.
In the release assay, either 1 mM or 5 mM peptide (1 mM peptide except where indicated to be 5 mM in FIG. 4). In some cases, the release assay was performed in the presence of 1 mM dithiothreitol (DTT). The assay was performed with two different batches of donor cells (second batch of donor cells designated with “*” in FIG. 4).

[3] = target: biotinylated 9C5 antibody (anti-human CD34 monoclonal antibody); test: cell-based or functional assay
[4] = SA: streptavidin coated Dynabead control

## ACKRPP
anti-CD2 antibody B-E2 [1]
  competition for binding of the anti-CD2 antibody B-E2 to cells: compete for binding

## ACKQFDFCNDHWSKSQH
anti-CD2 antibody B-E2 [1]
  competition for binding of the anti-CD2 antibody B-E2 to cells: compete for binding

## KCHPNMSLKECH
anti-CD2 antibody B-E2 [1]
  competition for binding of the anti-CD2 antibody B-E2 to cells: compete for binding

## ACKQLHSVSGCR
anti-CD2 antibody B-E2 [1]
  competition for binding of the anti-CD2 antibody B-E2 to cells: compete for binding

## ACKQFDFC
anti-CD2 antibody B-E2 [1]
  competition for binding of the anti-CD2 antibody B-E2 to cells: compete for binding

## ACKQFNNDVTCNAAEGDD
anti-CD2 antibody B-E2 [1]
  competition for binding of the anti-CD2 antibody B-E2 to cells: compete for binding

## Ac-QQGWFPKD [PR34+™ peptide, peptide capable of displacing the anti-CD34 antibody 9C5 (9069); used free as release agent]
SUP-T1 cells
  fluorescent signal after addition of free peptide: eliminated the fluorescent signal
CD8+ cells
  % Yield: less than 3%
CD2+ T cells; CD2-9069N 1 μg, b-9069 1 μg
  % Purity (CD3+): 89%
  % T-cells released: 71%
CD2+ T cells; CD2-9069N 1 μg, b-9069 10 μg
  % Purity (CD3+): 87% and 74%
  % T-cells released: 87% and 65%
CD2+ T cells; CD2-9069N 5 μg, b-9069 1 μg
  % Purity (CD3+): 88% and 81%
  % T-cells released: 61% and 56%
CD2+ T cells; CD2-9069N 5 μg, b-9069 10 μg
  % Purity (CD3+): 70%
  % T-cells released: 50%
CD2 T cells; 1 μg antibody per 10^8 beads
  % Purity: 92.4%
  % Yield: 55.9%
CD2 T cells; 5 μg antibody per 10^8 beads
  % Purity: 91.3%
  % Yield: 68.9%
CD2 T cells; 20 μg antibody per 10^8 beads
  % Purity: 91.8%
  % Yield: 47.4%
CD2 T cells; 50 μg antibody per 10^8 beads
  % Purity: 91.4%
  % Yield: 57.5%
CD2 T cells; [4]
  % Purity: 94.5%
  % Yield: 81.5%
CD2 T cells; summary, antibody-coated beads
  purity of the cells released by free peptide: greater than 90%
CD2 T cells; summary, antibody-coated beads incubated with free PR34+ peptide
  yield of CD2 cells: ≥ 50%
Camma cells
  cells released: Greater than 75%

## ACKQFNNDV
anti-CD2 antibody B-E2 [1]
  competition for binding of the anti-CD2 antibody B-E2 to cells: compete for binding

## ACKRPPVSLTCH
anti-CD2 antibody B-E2 [1]
  competition for binding of the anti-CD2 antibody B-E2 to cells: compete for binding

## RCRRPATTPACRACKQF
anti-CD2 antibody B-E2 [1]
  competition for binding of the anti-CD2 antibody B-E2 to cells: compete for binding

## ACKQF
anti-CD2 antibody B-E2 [1]
  competition for binding of the anti-CD2 antibody B-E2 to cells: compete for binding

## ACKQFNNDVTCN
anti-CD2 antibody B-E2 [1]
  competition for binding of the anti-CD2 antibody B-E2 to cells: compete for binding

## ACKQFACKQF
anti-CD2 antibody B-E2 [1]
  competition for binding of the anti-CD2 antibody B-E2 to cells: compete for binding

## ACKQFN
anti-CD2 antibody B-E2 [1]
  competition for binding of the anti-CD2 antibody B-E2 to cells: compete for binding

## RCRRPATTPACR
anti-CD2 antibody B-E2 [1]
  competition for binding of the anti-CD2 antibody B-E2 to cells: compete for binding
anti-CD2 antibody B-E2 [2]
  release activity (release of T cells bound to anti-CD2 antibody): highest release activity

## ASKQF
anti-CD2 antibody B-E2 [1]
  competition for binding of the anti-CD2 antibody B-E2 to cells: compete for binding

## ACKQFNNDVTCNKRH
anti-CD2 antibody B-E2 [1]
  competition for binding of the anti-CD2 antibody B-E2 to cells: compete for binding

## ACKQFDFCNDH
anti-CD2 antibody B-E2 [1]
  competition for binding of the anti-CD2 antibody B-E2 to cells: compete for binding

## ACKQFDFCNDHWSK
anti-CD2 antibody B-E2 [1]
  competition for binding of the anti-CD2 antibody B-E2 to cells: compete for binding

B1: free PR34+ peptide Ac-QQGWFPKD (SEQ ID NO:2) (peptide)
peptide: Ac-QQGWFPKD
[3]
  % SUP-T1 Yield after release with free peptide (tube 2): 43%
  % SUP-T1 Yield after release with free peptide (tube 3): 31%
  % T-cells released by 9069N 2.5 mg (CD2-9069N 1 µg, b-9069 1 µg): 71%
  % T-cells released by 9069N 2.5 mg (CD2-9069N 1 µg, b-9069 10 µg): 87% and 65%
  % T-cells released by 9069N 2.5 mg (CD2-9069N 5 µg, b-9069 1 µg): 61% and 56%
  % T-cells released by 9069N 2.5 mg (CD2-9069N 5 µg, b-9069 10 µg): 50%
  % Yield after release with PR34+ 2.5 mg (streptavidin coated Dynabead control): 81.5%
  % Yield of CD8+ cells after release with free peptide (condition 3): 16%
